Laboratory results as given in paper PMC7087482 (Journal of medicinal chemistry, 2020).
“Also recorded” adds a separate entry of the source.

Experiments:
[1] = target: T1, CYP3A4 (Homo sapiens, UniProt P08684); test: P450-Glo luminescence biochemical inhibition assay; conditions: compound at 1.8 μM, DMSO 0.1%
[2] = target: T1, CYP3A4; test: Cytochrome P450 inhibition panel in pooled human liver microsomes; type: biochemical; conditions: 1.8 μM clobetasol
[3] = tested on: CYP1A2, 2B6, 2C8, 2C9, 2C19, and 2D6; test: as above; type: biochemical; conditions: 1.8 μM clobetasol, own probe substrate per CYP
[4] = target: T2, CYP3A5 (Homo sapiens, UniProt P20815); test: CYP3A5 activity in AsPC-1 cells by 1-hydroxymidazolam formation; type: cell-based; conditions: 5 μM midazolam, 24 h
[5] = target: T2, CYP3A5; test: CW X-band EPR spectroscopy of CYP3A5-ligand complexes; conditions: CYP 200 μM, compound 400 μM, 10 K
[6] = target: T1, CYP3A4; test: CW X-band EPR spectroscopy of CYP3A4-ligand complexes; conditions: CYP 200 μM, compound 400 μM, 10 K
[7] = tested on: CYP3A4; test: Western blot of CYP3A4 protein level after compound treatment; conditions: 1 μM compound, 24 h treatment
[8] = target: T2, CYP3A5; test: UV-visible absorbance titration with purified recombinant CYP3A5; conditions: UV-visible Soret band shift

`CCC(=O)O[C@]1(C(=O)CCl)[C@@H](C)C[C@H]2[C@@H]3CCC4=CC(=O)C=C[C@]4(C)[C@@]3(F)[C@@H](O)C[C@@]21C` [clobetasol, Clobetasol propionate] was tested, and the “Inhibition of CYP3A4” value [1] was “no inhibition”, the “Inhibition of CYP3A4-mediated catalysis, substrate midazolam” value [2] was “uninhibited” and the “Inhibition of CYP3A4-mediated catalysis, substrate testosterone” value [2] was “uninhibited”. The “Inhibition of other major human CYPs” value [3] was “little or no inhibition; also recorded: no significant inhibition”, the “Inhibition of CYP3A5 activity (1OH-MDZ formation)” value ([4]; CYP3A5 overexpressed (+Dox) in WT or 3A5-/- AsPC-1 cells) was “inhibited the CYP3A5 activity” and the “Inhibition of CYP3A5 activity (1OH-MDZ formation) compared with ketoconazole” value ([4]; parental AsPC-1 (WT) cells, dose-response) was “slightly more potent”. The “Heme iron spin state of CYP3A5 complex (EPR)” value [5] was “five-coordinate HS ferric heme iron state”, the “Heme iron spin state of CYP3A4 complex (EPR)” value [6] was “no new HS formation” and the “Effect on CYP3A4 protein level (Western blot)” value [7] was “did not increase the protein level of CYP3A4”.

With `CC(=O)N1CCN(c2ccc(OCC3COC(Cn4ccnc4)(c4ccc(Cl)cc4Cl)O3)cc2)CC1` (stereo not shown) [ketoconazole, Ketoconazole] the “Effect on CYP3A4 protein level (Western blot)” value [7] was “increased CYP3A4 protein expression”.

`Cc1ncc2n1-c1ccc(Cl)cc1C(c1ccccc1F)=NC2` [midazolam, Midazolam] was tested, and the “Heme iron spin state of CYP3A5 complex (EPR)” value [5] was “five-coordinate HS ferric heme iron state”, the “Heme iron spin state of CYP3A4 complex (EPR)” value [6] was “an HS signal was induced” and the “Spectral shift type on titration with CYP3A5” value [8] was “typical type I CYP spectral shift”.
